{"source": "patent US20160220567A1", "about": "“COMPOSITION FOR TREATING OR PREVENTING BONE DISEASES, COMPRISING HALOFUGINONE AS ACTIVE INGREDIENT” (THE CATHOLIC UNIVERSITY OF KOREA INDUSTRY-ACADEMIC …, priority 2013, published 2016)", "key": {"[1]": {"test_system": "CD4 T cells isolated from human peripheral blood", "assay": "Expression of IL-17 and Foxp3 by flow cytometer in human T cells", "type": "cell-based", "conditions": "condition of differentiating Th17 cells, flow cytometry, FIG. 6A", "description": "The CD4 T cells isolated from human peripheral blood were treated with halofuginone under the condition of differentiating Th17 cells (anti-CD3 (0.5 μg/mL), anti-CD28 (0.5 μg/mL), anti-IFN-γ (10 μg/mL), anti-IL-4 (10 μg/mL), IL-6 (20 ng/mL), and IL-1β (10 ng/mL)) and cultured. Then, the cells were collected, washed with the FACs buffer for flow cytometry analysis, subjected to blocking at 4° C. for the inhibition of non-specific binding for 15 minutes, added with CD4 and CD25 (i.e., cell surface markers) along with anti-CD4-PerCP and anti-CD25-APC and reacted at 4° C. for 30 minutes, and washed with a perm wash buffer. After performing the Cytofix/cytoperm process at 4° C. for 20 minutes, the resultant was washed with the perm wash buffer. Anti Foxp3-FITC and anti IL-17 PE were added thereto, reacted at 4° C. for 30 minutes, and washed with the perm wash buffer. Upon completion of staining, the cells were analyzed using the fluorescentactivated cell sorter (FACs) regarding the expression levels of IL-17 cytokines and Foxp3 according to the halofuginone treatment."}, "[2]": {"test_system": "murine bone marrow cells differentiating into osteoclasts", "assay": "Murine bone marrow cell osteoclast differentiation (M-CSF, RANKL): TRAP staining and real-time PCR", "type": "cell-based, mouse", "conditions": "5 days", "description": "For test animals, 6 to 7-week old male DBA-1 mice were used. […] Bone marrow cells were isolated from the tibia and the femur of mice, and the RBC of the isolated bone marrow cells were lysed, inoculated into a 24-well plate after diluting in 10% Minimum α-MEM to a concentration of 2 ? 10^5 cells/well, and cultured for 12 hours. The adherent cells were removed, stimulated with a macrophage-colony stimulating factor (M-CSF) and cultured for 3 days, and treated with M-CSF (10 ng/mL), receptor activator of NF-κB ligand (RANKL; 50 ng/mL), and halofuginone and cultured for 2 days. The medium was replaced in 2 days, retreated in the same manner, and cultured for 2 days.\nMurine bone marrow cells were differentiated for 5 days by stimulating with M-CSF, RANKL, and halofuginone and subjected to TRAP staining according to the method described in Example <1-8> to confirm the number of TRAP positive cells. Additionally, the expression of c-Fos, JunB, and Jpd2 in the bone marrow cells were confirmed by real-time PCR according to the method described in Example <1-6>."}, "IL-17 and Foxp3 genes": {"test_system": "IL-17 and Foxp3 genes", "assay": "Expression of IL-17 and Foxp3 genes in splenocytes and draining lymph nodes by RT-PCR", "type": "in vivo, mouse", "conditions": "mRNA, splenocytes and draining lymph nodes of CIA mice, FIG. 2C", "description": "(§1) For the construction of a mouse model with collagen-induced arthritis (hereinafter, referred to as “CIA”), a 6-week old male DBA/1J mouse was subjected to primary immunization by intradermal injection after mixing the bovine type II collagen (hereinafter, referred to as “CII”) and complete Freud's adjuvant (CFA) in an amount of 100 μL, respectively. After a week thereafter, halofuginone was injected intraperitoneally at 3 day intervals at a concentration of 100 μg/kg and 500 μg/kg, respectively (9 weeks).\nTo examine the effect of halofuginone treatment in an animal model, the RNA in the splenocytes and draining lymph nodes were extracted using the Trizol reagent, and the expression of IL-17and Foxp3 genes was confirmed by RT-PCR.\nThe real-time PCR was performed using the LightCycler 2.0 System Instrument and the reaction compounds were prepared by mixing 1 μL of each cDNA, 10 μL of premix Ex Taq as an enzyme for the initiation, and each primer pair to a final volume of 20 μL using distilled water. […] The values of cycle threshold (Ct) were analyzed and the amount of mRNA expression for each target was indicated in terms of the amount of beta-actin mRNA expression and the relative quantity. […]"}, "[3]": {"test_system": "osteoclasts (TRAP positive cells) in the joint", "assay": "Osteoclast differentiation potential in the joint of arthritis animal model by TRAP staining", "type": "in vivo, mouse", "conditions": "joint of CIA mice, FIG. 4A", "description": "as §1\nTo examine the osteoclast differentiation potential in the joint of the animal model with arthritis by TRAP staining, the marker enzyme of osteoclasts were subjected to TRAP staining using the leukocyte acid phosphatase Kit (387-A, Sigma, St. Louis, Mo., USA) according to the manufacturer's manual. The cells having at least 5 nuclei among the TRAP positive cells (red color) were regarded as osteoclasts."}, "[4]": {"test_system": "mononuclear cells of human peripheral blood", "assay": "Differentiation of osteoclasts in mononuclear cells of human peripheral blood: TRAP staining and real-time PCR", "type": "cell-based", "conditions": "M-CSF, RANKL, 9 days", "description": "The mononuclear cells of human peripheral blood were cultured for 9 days after stimulating with M-CSF, RANKL, and halofuginone. Then, the cells were stained by TRAP according to the manufacturer's manual, and the amount of mRNA of TRAP, NFATc1, calcitonin receptor (CTR), cathepsin K, MMP9, and RANK were confirmed by real-time PCR."}, "Rcan3 and Sox6": {"test_system": "Rcan3 and Sox6", "assay": "Expression of Rcan3 and Sox6 in joint tissue of CII-immunized DBA/1J mice by immunohistochemical staining", "type": "in vivo, mouse", "conditions": "500 μg/kg intraperitoneally, 50 days, vs untreated group, FIG. 7", "description": "Furthermore, to examine whether the halofuginone compound of the present invention can promote the differentiation and the activity of osteoblasts, the present inventors performed the following experiment for the purpose of confirming the effect of the halofuginone compound on the expression and the activity of Rcan3 and Sox6, which are factors associated with the differentiation of osteoblasts. Specifically, the DBA/1J mice were subjected to the primary immunization by intradermally injecting bovine type II collagen (hereinafter, “CII”) in an amount of 100 μL, and one week thereafter, injected intraperitoneally with halofuginone (500 μg/kg). Fifty days thereafter, the mice were sacrificed, and the expression levels of Rcan3 and Sox6 in the joint tissue of the mice were confirmed via immunohistochemical staining method. The group of mice not treated with halofuginone was used as the control group.\nThe immunohistochemical staining method was performed as follows. The joints of the mice group used above were collected, fixed with 10% neutral buffered formalin, the bones were decalcified with Calci-Clear Rapid bone decalcifier and embedded in paraffin, the joint tissue was prepared into 7 μm-thick slices and attached to slides. […]"}, "[5]": {"conditions": "dose-dependent, FIGS. 6B and 6C"}}, "data": [{"smiles": "O=C(C[C@H]1NCCC[C@@H]1O)Cn1cnc2cc(Br)c(Cl)cc2c1=O", "note": "(racemic) [halofuginone]", "values": [{"measurement": "number of Th17 cells", "setting": "[1]", "result": "reduces"}, {"measurement": "number of Treg cells", "setting": "[1]", "result": "increasing"}, {"measurement": "mRNA expression of Jpd2", "setting": "[2]; FIG. 5C", "result": "inhibits"}, {"measurement": "mRNA expression of JunB", "setting": "[2]; FIG. 5C", "result": "inhibits"}, {"measurement": "mRNA expression of c-Fos", "setting": "[2]; FIG. 5C", "result": "inhibits"}, {"measurement": "expression of factors associated with the differentiation of osteoclasts", "setting": "[2]; TRAP staining, FIG. 5A", "result": "inhibits"}, {"measurement": "expression of Foxp3", "setting": "IL-17 and Foxp3 genes", "result": "increased"}, {"measurement": "expression of IL-17", "setting": "IL-17 and Foxp3 genes", "result": "decreased"}, {"measurement": "number of TRAP positive cells", "setting": "[3]", "result": "decreased"}, {"measurement": "differentiation of osteoclasts", "setting": "[4]", "result": "effectively inhibit"}, {"measurement": "mRNA expression of MMP9", "setting": "[4]; [5]", "result": "decreased"}, {"measurement": "mRNA expression of NFATc1", "setting": "[4]; [5]", "result": "decreased"}, {"measurement": "mRNA expression of RANK", "setting": "[4]; [5]", "result": "decreased"}, {"measurement": "mRNA expression of TRAP", "setting": "[4]; [5]", "result": "decreased"}, {"measurement": "mRNA expression of calcitonin receptor(CTR)", "setting": "[4]; [5]", "result": "decreased"}, {"measurement": "mRNA expression of cathepsin K", "setting": "[4]; [5]", "result": "decreased"}, {"measurement": "expression of Rcan3", "setting": "Rcan3 and Sox6", "result": "significant increase"}, {"measurement": "expression of Sox6", "setting": "Rcan3 and Sox6", "result": "significant increase"}]}]}
